Source: US11415579B2, “Assay for measuring a rate of reaction between a target and a ligand candidate” (Imperial College Innovations Ltd., priority 2016, dated 2022)

What was measured:
Cdk2(H71C) (C177A) = target: T1, Cdk2(H71C) (C177A) (Homo sapiens, UniProt P24941, C177A/H71C); assay: Kinetic thiol consumption assay with Cdk2 mutant H71C; format: binding; design: key to Rate enhancement, Cdk2 H71C: rate constant with Cdk2 ÷ rate constant with model thiol (fold); conditions: additional mutation C177A; for Rate constant with Cdk2 H71C: Protein: Cdk2, cysteine position H71C, in h^-1
T1 construct: poly-histidine; made in house; host or cells: E. coli
Summary of the method: (§1)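 5 μM thiol, degassed phosphate pH 8, 2% v/v immobilized TCEP beads; 1 h RT; fluorescence ex 380/em 470 nm; normalized vs DMSO/thiol-only; first-order exponential decay fit → rate constant; Cdk2 k / model-thiol k = rate enhancement per acrylamide.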

Cdk2(S276C) (C177A) = target: T2, Cdk2(S276C) (C177A) (Homo sapiens, UniProt P24941, C177A/S276C); assay: Kinetic thiol consumption assay with Cdk2 mutant S276C; format: binding; design: key to Rate enhancement, Cdk2 S276C: rate constant with Cdk2 ÷ rate constant with model thiol (fold); conditions: additional mutation C177A; for Rate constant with Cdk2 S276C: Protein: Cdk2, cysteine position S276C, in h^-1
T2 construct: poly-histidine; made in house; host or cells: E. coli
Summary of the method: as §1

Cdk2(C177A, F80C) = target: T3, Cdk2(C177A, F80C) (Homo sapiens, UniProt P24941, C177A/F80C); assay: Kinetic thiol consumption assay with Cdk2 mutant F80C, incl. kobs versus concentration (Kd, k2); format: binding; design: key to Rate enhancement, Cdk2 F80C: Cdk2 rate constant divided by model-thiol rate constant; conditions: additional mutation C177A; for Rate constant with Cdk2 F80C: Protein: Cdk2, cysteine position F80C, in h^-1
T3 construct: poly-histidine; made in house; host or cells: E. coli
Summary of the method: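 His-tagged Cdk2(C177A/F80C) from E. coli or model thiol, 5 μM in degassed phosphate buffer pH 8 with TCEP beads, reacted with acrylamide ligands; fluorescence (ex/em 380/470 nm) normalized to DMSO control and fitted to first-order decay for kobs. Kd and k2 obtained from hyperbolic fit of kobs versus ligand concentration.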

Cdk2[C177A, F80C, K278C] = target: T4, Cdk2[C177A, F80C, K278C] (Homo sapiens, UniProt P24941, C177A/F80C/K278C); assay: Kinetic thiol consumption assay with mutant Cdk2 as model thiol; format: binding; design: unit not given here; conditions: 500 μM ligand, 5 μM thiol, phosphate buffer pH 8
T4 construct: poly-histidine; made in house; host or cells: E. coli
Summary of the method: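 Model thiol: His-tagged human Cdk2 C177A/F80C/K278C (two engineered surface cysteines), E. coli-expressed, 5 μM in degassed phosphate buffer pH 8 with immobilized TCEP beads (2% v/v). Fluorescence (ex/em 380/470 nm) followed over time at room temperature, normalized to DMSO/thiol control. First-order decay fit gives rate constants.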

[1] = target: T5, human cyclin-dependent kinase 2 (Cdk2) (Homo sapiens, UniProt P24941); assay: Kinetic thiol consumption assay with wild type Cdk2 (C177); format: binding; design: key to Rate enhancement, Cdk2 WT: k(Cdk2) divided by k(model thiol); Rate constant with Cdk2 (k(Cdk2)): unit not given here; conditions: for Rate constant with Cdk2 (k(Cdk2)): 500 μM ligand, 5 μM thiol, phosphate buffer pH 8; for Rate enhancement, Cdk2 WT: no additional mutations; for Rate constant with Cdk2 WT: Protein: Cdk2, cysteine position WT, in h^-1; for k(Cdk2)/k(Cdk2_mut) rate enhancement: model thiol Cdk2[C177A, F80C, K278C]; for k(Cdk2)/k(GSH) rate enhancement: model thiol glutathione
T5 construct: poly-histidine; made in house; host or cells: E. coli
Summary of the method: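 Thiol 5 μM (Cdk2 or model thiol), degassed phosphate buffer pH 8, TCEP beads 2% v/v. Plates incubated 1 h RT, ex/em 380/470 nm. First-order decay fit → rate constant; ratio Cdk2/model thiol = rate enhancement.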

Cdk2(S181C) (C177A) = target: T6, Cdk2(S181C) (C177A) (Homo sapiens, UniProt P24941, C177A/S181C); assay: Kinetic thiol consumption assay with Cdk2 mutant S181C; format: binding; design: key to Rate enhancement, Cdk2 S181C: rate constant with Cdk2 ÷ rate constant with model thiol (fold); conditions: additional mutation C177A; for Rate constant with Cdk2 S181C: Protein: Cdk2, cysteine position S181C, in h^-1
T6 construct: poly-histidine; made in house; host or cells: E. coli
Summary of the method: as §1

Cdk2(T182C) (C177A) = target: T7, Cdk2(T182C) (C177A) (Homo sapiens, UniProt P24941, C177A/T182C); assay: Kinetic thiol consumption assay with Cdk2 mutant T182C; format: binding; design: key to Rate enhancement, Cdk2 T182C: rate constant with Cdk2 ÷ rate constant with model thiol (fold); conditions: additional mutation C177A; for Rate constant with Cdk2 T182C: Protein: Cdk2, cysteine position T182C, in h^-1
T7 construct: poly-histidine; made in house; host or cells: E. coli
Summary of the method: as §1

Cdk2(N272C) (C177A) = target: T8, Cdk2(N272C) (C177A) (Homo sapiens, UniProt P24941, C177A/N272C); assay: Kinetic thiol consumption assay with Cdk2 mutant N272C; format: binding; design: key to Rate enhancement, Cdk2 N272: rate constant with Cdk2 ÷ rate constant with model thiol (fold); conditions: for Rate enhancement, Cdk2 N272: Cdk2 N272, additional mutation C177A; for Rate constant with Cdk2 N272C: Protein: Cdk2, cysteine position N272C, additional mutation C177A, in h^-1
T8 construct: poly-histidine; made in house; host or cells: E. coli
Summary of the method: as §1

[2] = Kinetic thiol consumption assay with model thiol glutathione; format: physicochemical; design: Rate constant with glutathione (k(GSH)): unit not given here; conditions: for Rate constant with glutathione (k(GSH)): 500 μM ligand, 5 μM thiol, phosphate buffer pH 8; for Rate constant with Glutathione: Protein: Glutathione, cysteine position NA, in h-1
Summary of the method: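 GSH 5 μM, degassed phosphate buffer pH 8, TCEP beads 2% v/v; acrylamide added; RT, 1 h; fluorescence ex/em 380/470 nm; normalized to DMSO/thiol control; k from first-order exponential decay fit.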

Cdk2(R122C) (C177A) = target: T9, Cdk2(R122C) (C177A) (Homo sapiens, UniProt P24941, C177A/R122C); assay: Kinetic thiol consumption assay with Cdk2 mutant R122C; format: binding; design: key to Rate enhancement, Cdk2 R122C: rate constant with Cdk2 ÷ rate constant with model thiol (fold); conditions: additional mutation C177A; for Rate constant with Cdk2 R122C: Protein: Cdk2, cysteine position R122C, in h-1
T9 construct: poly-histidine; made in house; host or cells: E. coli
Summary of the method: as §1

Structure (SMILES)	Rate enhancement, Cdk2 H71C (Cdk2(H71C) (C177A))	Rate enhancement, Cdk2 S276C (Cdk2(S276C) (C177A))	Rate constant with Cdk2 S276C (Cdk2(S276C) (C177A))	Rate enhancement, Cdk2 F80C (Cdk2(C177A, F80C))	Rate constant with Cdk2[C177A, F80C, K278C] (k(Cdk2_mut)) (Cdk2[C177A, F80C, K278C])	Rate constant with Cdk2 (k(Cdk2)) [1]	Rate enhancement, Cdk2 WT [1]	Rate constant with Cdk2 WT [1]	k(Cdk2)/k(Cdk2_mut) rate enhancement [1]	k(Cdk2)/k(GSH) rate enhancement [1]	Rate enhancement, Cdk2 S181C (Cdk2(S181C) (C177A))	Rate constant with Cdk2 S181C (Cdk2(S181C) (C177A))	Rate enhancement, Cdk2 T182C (Cdk2(T182C) (C177A))	Rate constant with Cdk2 T182C (Cdk2(T182C) (C177A))	Rate enhancement, Cdk2 N272 (Cdk2(N272C) (C177A))	Rate constant with Cdk2 N272C (Cdk2(N272C) (C177A))	Rate constant with glutathione (k(GSH)) [2]	Rate constant with Glutathione [2]	Rate enhancement, Cdk2 R122C (Cdk2(R122C) (C177A))	Rate constant with Cdk2 R122C (Cdk2(R122C) (C177A))	further results
C=CC(=O)N(C)C1CC(OCC)C12CCC2 (stereo not shown) [CA-048]	0.2331	0.779	0.01473	0.8022	0.00791	0.01116	0.7118	0.01346	1.41	0.8182	0.6029	0.0114	2.645	0.05001	0.5442	0.01029	0.01364	0.01891	0.2023	0.003826	Rate constant with Cdk2 H71C (Cdk2(H71C) (C177A)): 0.004408; Rate constant with Cdk2 F80C (Cdk2(C177A, F80C)): 0.01517
C=CC(=O)NCCNC(=O)c1ccccc1 [CA216]	1.033	1.648	0.007064	18.66	0.01899	0.00676	3.777	0.01619	0.356	2.66	0.8854	0.003795	59.66	0.2557	2.921	0.01252	0.00254	0.004286	0.4256	0.001824	Rate constant with Cdk2 H71C (Cdk2(H71C) (C177A)): 0.004427; Rate constant with Cdk2 F80C (Cdk2(C177A, F80C)): 0.07999
C=CC(=O)N1CCCC(N2C(=O)CC3(CCCC3)C2=O)C1 (stereo not shown) [CA-236]	0.1903	0.0707	0.0006497	0.4074	0.00395	0.00116	0.1258	0.001156	0.2924	0.2286	0.2301	0.002114	1.042	0.009576	0.09859	0.0009059	0.00506	0.009189	0.2009	0.001846	Rate constant with Cdk2 H71C (Cdk2(H71C) (C177A)): 0.001749; Rate constant with Cdk2 F80C (Cdk2(C177A, F80C)): 0.003744
C=CC(=O)Nc1cccc(-c2cc3ccccc3[nH]2)c1 [EL-1098]	0.2587	1.017	0.0117	0.7203	0.03487	0.01063	0.9235	0.01063	0.3049	0.9268	0.4335	0.00499	2.526	0.02907	0.8491	0.009773	0.01147	0.01151	0.5598	0.006443	Rate constant with Cdk2 H71C (Cdk2(H71C) (C177A)): 0.002978; Rate constant with Cdk2 F80C (Cdk2(C177A, F80C)): 0.008291
C=CC(=O)Nc1sc2c(c1C(=O)NC1CC1)CCC2 [CA-155]	1.102	0.6924	0.1839	0	1.391	0.743	2.797	0.743	0.5342	2.774	0.7715	0.2049	2.615	0.6945	0.715	0.1899	0.2678	0.2656	1.407	0.3736	Rate constant with Cdk2 H71C (Cdk2(H71C) (C177A)): 0.2926
C=CC(=O)NC(C)c1cccc(N2CCOCC2)c1 (stereo not shown) [EL-1153]	0	2.7205E−11	7.68E−14	0	0.00419	0.00103	0.3642	0.001028	0.2449	0.3619	0.7428	0.002097	0.474	0.001338	4.534	0.0128	0.00284	0.002823	0.9706	0.00274	–
C=CC(=O)Nc1ccc(C(=O)OC)cc1 [CA-028]	1.035	1.04	0.06356	1.175	0.3138	0.1733	2.835	0.1733	0.5523	2.895	0.5066	0.03097	5.246	0.3207	0.7612	0.04653	0.05986	0.06113	0.3475	0.02124	Rate constant with Cdk2 H71C (Cdk2(H71C) (C177A)): 0.06327; Rate constant with Cdk2 F80C (Cdk2(C177A, F80C)): 0.07185
